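Five concentrations, 48 hours, 96-well plates. At the TGI there is no net growth.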
Experiments:
Experiment in all cases: NCI anticancer screen, dose series, 48 h
[1] = tested on: SNB-19 CNS
[2] = tested on: HT29 colon
[3] = tested on: TK-10 renal
[4] = tested on: MOLT-4 leukemia
[5] = tested on: M14 melanoma
[6] = tested on: HCC-2998 colon
[7] = tested on: KM20L2 colon
[8] = tested on: SK-MEL-28 melanoma
[9] = tested on: NCI-H23 lung
[10] = tested on: DMS 273 small cell lung
[11] = tested on: UACC-62 melanoma
[12] = tested on: HOP-18 NSCLC
[13] = tested on: K-562 leukemia
[14] = tested on: SK-MEL-5 melanoma
[15] = tested on: HOP-62 NSCLC
[16] = tested on: NCI-H522 lung
[17] = tested on: OVCAR-5 ovarian
[18] = tested on: IGROV1 ovarian
[19] = tested on: OVCAR-8 ovarian
[20] = tested on: COLO 205 colon
[21] = tested on: NCI-H226 lung
[22] = tested on: HCT-15 colon
[23] = tested on: EKVX NSCLC
[24] = tested on: RPMI-8226 leukemia
[25] = tested on: SW-620 colon
[26] = tested on: NCI-H460 lung
[27] = tested on: ACHN renal
[28] = tested on: XF 498 CNS
[29] = tested on: A549 NSCLC
[30] = tested on: SK-MEL-2 melanoma
[31] = tested on: U251 CNS
[32] = tested on: UO-31 renal
[33] = tested on: LXFL 529 NSCLC
[34] = tested on: CCRF-CEM leukemia
[35] = tested on: OVCAR-3 ovarian
[36] = tested on: SK-OV-3 ovarian
[37] = tested on: HCT-116 colon
[38] = tested on: SF-268 CNS
[39] = tested on: RXF 393 renal
[40] = tested on: M19-MEL melanoma
[41] = tested on: SN12C renal
[42] = tested on: DMS 114 small cell lung
[43] = tested on: CAKI-1 renal
[44] = tested on: OVCAR-4 ovarian
[45] = tested on: MALME-3M melanoma
[46] = tested on: SF-539 CNS
[47] = tested on: LOX IMVI melanoma
[48] = tested on: HL-60(TB) leukemia
[49] = tested on: SR leukemia
[50] = tested on: KM12 colon
[51] = tested on: UACC-257 melanoma
[52] = tested on: A498 renal
[53] = tested on: HOP-92 NSCLC
[54] = tested on: SNB-75 CNS
[55] = tested on: SF-295 CNS
[56] = tested on: DLD-1 colon
[57] = tested on: SNB-78 CNS
[58] = tested on: 786-0 renal

CC1(C)Cc2c(C#N)c(N)c3c(c2CO1)C(=O)OC3=O
TGI [1]: > 100 µM
TGI [2]: > 100 µM
TGI [3]: > 100 µM
TGI [4]: > 100 µM
TGI [5]: > 100 µM
TGI [6]: > 100 µM
TGI [7]: > 100 µM
TGI [8]: > 100 µM
TGI [9]: > 100 µM
TGI [10]: > 100 µM
TGI [11]: > 100 µM
TGI [12]: > 100 µM
TGI [13]: > 100 µM
TGI [14]: > 100 µM
TGI [15]: > 100 µM
TGI [16]: > 100 µM
TGI [17]: > 100 µM
TGI [18]: > 100 µM
TGI [19]: > 100 µM
TGI [20]: > 100 µM
TGI [21]: > 100 µM
TGI [22]: > 100 µM
TGI [23]: > 100 µM
TGI [24]: > 100 µM
TGI [25]: > 100 µM
TGI [26]: > 100 µM
TGI [27]: > 100 µM
TGI [28]: > 100 µM
TGI [29]: > 100 µM
TGI [30]: > 100 µM
TGI [31]: > 100 µM
TGI [32]: > 100 µM
TGI [33]: > 100 µM
TGI [34]: > 100 µM
TGI [35]: > 100 µM
TGI [36]: > 100 µM
TGI [37]: > 100 µM
TGI [38]: > 100 µM
TGI [39]: > 100 µM
TGI [40]: > 100 µM
TGI [41]: > 100 µM
TGI [42]: > 100 µM
TGI [43]: > 100 µM
TGI [44]: > 100 µM
TGI [45]: > 100 µM
TGI [46]: > 100 µM
TGI [47]: > 100 µM
TGI [48]: > 100 µM
TGI [49]: > 100 µM
TGI [50]: > 100 µM

Cc1cccc2c1N(C(=O)/C=C\C(=O)O)C(c1c(C)[nH]c3ccccc13)C2 (stereo not given)
TGI [1]: > 100 µM
TGI [2]: > 100 µM
TGI [3]: > 100 µM
TGI [4]: > 100 µM
TGI [5]: > 100 µM
TGI [6]: 33.9 µM
TGI [7]: > 100 µM
TGI [8]: 53.3 µM
TGI [9]: > 100 µM
TGI [11]: 41.8 µM
TGI [13]: > 100 µM
TGI [14]: 32.8 µM
TGI [15]: > 100 µM
TGI [16]: 46.3 µM
TGI [17]: > 100 µM
TGI [51]: > 100 µM
TGI [18]: > 10 µM
TGI [19]: > 100 µM
TGI [20]: > 10 µM
TGI [21]: > 100 µM
TGI [23]: > 100 µM
TGI [24]: > 100 µM
TGI [25]: 79.3 µM
TGI [26]: > 100 µM
TGI [27]: > 100 µM
TGI [28]: 40.6 µM
TGI [29]: > 100 µM
TGI [52]: > 100 µM
TGI [30]: 36 µM
TGI [31]: > 10 µM
TGI [53]: 82.4 µM
TGI [32]: > 100 µM
TGI [33]: 28.6 µM
TGI [34]: 78.2 µM
TGI [54]: > 10 µM
TGI [35]: > 10 µM
TGI [36]: > 100 µM
TGI [55]: > 100 µM
TGI [56]: > 100 µM
TGI [57]: > 100 µM
TGI [37]: 54.3 µM
TGI [38]: > 10 µM
TGI [40]: 53.1 µM
TGI [41]: > 100 µM
TGI [42]: 42.2 µM
TGI [58]: > 100 µM
TGI [43]: > 100 µM
TGI [44]: > 100 µM
TGI [45]: 48.1 µM
TGI [48]: 51.3 µM
TGI [49]: > 100 µM
TGI [50]: > 100 µM

NC(=O)CCC(N=C(N)c1csc(C2OC(CO)C(O)C2O)n1)C(=O)O (stereo not given)
TGI [2]: > 100 µM
TGI [3]: > 100 µM
TGI [4]: > 100 µM
TGI [5]: > 100 µM
TGI [6]: > 100 µM
TGI [7]: > 100 µM
TGI [8]: > 100 µM
TGI [9]: > 100 µM
TGI [10]: > 100 µM
TGI [11]: > 100 µM
TGI [13]: > 100 µM
TGI [14]: > 100 µM
TGI [16]: > 100 µM
TGI [17]: > 100 µM
TGI [51]: > 100 µM
TGI [18]: > 100 µM
TGI [19]: > 100 µM
TGI [20]: > 100 µM
TGI [22]: > 100 µM
TGI [23]: > 100 µM
TGI [24]: > 100 µM
TGI [25]: > 100 µM
TGI [27]: > 100 µM
TGI [28]: > 100 µM
TGI [29]: > 100 µM
TGI [52]: > 100 µM
TGI [30]: > 100 µM
TGI [31]: > 100 µM
TGI [33]: > 100 µM
TGI [34]: > 100 µM
TGI [54]: > 100 µM
TGI [36]: > 100 µM
TGI [55]: > 100 µM
TGI [56]: > 100 µM
TGI [57]: > 100 µM
TGI [38]: > 100 µM
TGI [39]: > 100 µM
TGI [41]: > 100 µM
TGI [42]: > 100 µM
TGI [43]: > 100 µM
TGI [44]: > 100 µM
TGI [45]: > 100 µM
TGI [46]: > 100 µM
TGI [47]: > 100 µM
TGI [48]: > 100 µM
TGI [50]: > 100 µM

Cc1[nH]nc(N)c1C(N)=O
TGI [1]: > 100 µM
TGI [2]: > 100 µM
TGI [3]: > 100 µM
TGI [4]: > 100 µM
TGI [5]: > 100 µM
TGI [6]: > 100 µM
TGI [7]: > 100 µM
TGI [8]: > 100 µM
TGI [9]: > 100 µM
TGI [10]: > 100 µM
TGI [11]: > 100 µM
TGI [13]: > 100 µM
TGI [14]: > 100 µM
TGI [16]: > 100 µM
TGI [17]: > 100 µM
TGI [51]: > 100 µM
TGI [18]: > 100 µM
TGI [19]: > 100 µM
TGI [20]: > 100 µM
TGI [22]: > 100 µM
TGI [23]: > 100 µM
TGI [24]: > 100 µM
TGI [25]: > 100 µM
TGI [27]: > 100 µM
TGI [28]: > 100 µM
TGI [29]: > 100 µM
TGI [52]: > 100 µM
TGI [30]: > 100 µM
TGI [32]: > 100 µM
TGI [33]: > 100 µM
TGI [34]: > 100 µM
TGI [54]: > 100 µM
TGI [36]: > 100 µM
TGI [55]: > 100 µM
TGI [56]: > 100 µM
TGI [57]: > 100 µM
TGI [38]: > 100 µM
TGI [39]: 56.1 µM
TGI [41]: > 100 µM
TGI [42]: > 100 µM
TGI [43]: > 100 µM
TGI [44]: > 100 µM
TGI [45]: > 100 µM
TGI [46]: > 100 µM
TGI [47]: > 100 µM
TGI [48]: > 100 µM
TGI [50]: > 100 µM
